Measured values taken from patent US20250312462A1, “PAK1 DEGRADERS AND METHODS OF USE THEREOF” (INSTITUTE FOR CANCER RESEARCH D/B/A THE RESEARCH INSTITUTE …, priority 2022, published 2025).

Assays:
Assay in all cases: KINOMEscan
Conditions in all cases: read-out: Percent Control
PRKD2 = PRKD2 (Homo sapiens, UniProt Q9BZL6)
Description: (§1) The kinase engagement assay (KINOMEscan®) was performed by DiscoverX assessing binding abilities toward a set of kinases.

PIP5K1A = PIP5K1A (Homo sapiens, UniProt Q99755)
Description: as §1

ABL1-nonphosphorylated = ABL1-nonphosphorylated (Homo sapiens, UniProt P00519)
Description: as §1

TIE2 = TIE2 (Homo sapiens, UniProt Q02763)
Description: as §1

TEC = TEC (Homo sapiens, UniProt P42680)
Description: as §1

MUSK = MUSK (Homo sapiens, UniProt O15146)
Description: as §1

JNK2 = JNK2 (Homo sapiens, UniProt P45984)
Description: as §1

EPHA5 = EPHA5 (Homo sapiens, UniProt P54756)
Description: as §1

PKAC-beta = PKAC-beta (Homo sapiens, UniProt P22694)
Description: as §1

EGFR(S752-1759del) = EGFR(S752-1759del) (Homo sapiens, UniProt P00533, DEL752-759)
Description: as §1

BRK = BRK (Homo sapiens, UniProt Q13882)
Description: as §1

[1] = target: RSK4(Kin.Dom.2-C-terminal) (Homo sapiens, UniProt Q9UK32)
Description: as §1

LCK = LCK (Homo sapiens, UniProt P06239)
Description: as §1

CDC2L5 = target: T1, CDC2L5 (Homo sapiens, UniProt Q14004); assay type: binding
T1 construct: purchased DiscoverX

[2] = target: RPS6KA5(Kin.Dom.1-N-terminal) (Homo sapiens, UniProt O75582)
Description: as §1

FLT3 = FLT3 (Homo sapiens, UniProt P36888)
Description: as §1

CDKL3 = CDKL3 (Homo sapiens, UniProt Q8IVW4)
Description: as §1

BRAF(V600E) = BRAF(V600E) (Homo sapiens, UniProt P15056, V600E)
Description: as §1

PKMYT1 = PKMYT1 (Homo sapiens, UniProt Q99640)
Description: as §1

PAK1 = PAK1 (Homo sapiens, UniProt Q13153)
Description: as §1

[3] = target: ABL1(F317L)-phosphorylated (Homo sapiens, UniProt P00519, F317L)
Description: as §1

[4] = target: RPS6KA5(Kin.Dom.2-C-terminal) (Homo sapiens, UniProt O75582)
Description: as §1

ERBB2 = ERBB2 (Homo sapiens, UniProt P04626)
Description: as §1

PIKFYVE = PIKFYVE (Homo sapiens, UniProt Q9Y2I7)
Description: as §1

DDR1 = DDR1 (Homo sapiens, UniProt Q08345)
Description: as §1

ERN1 = ERN1 (Homo sapiens, UniProt O75460)
Description: as §1

TLK1 = TLK1 (Homo sapiens, UniProt Q9UKI8)
Description: as §1

p38-alpha = p38-alpha (Homo sapiens, UniProt Q16539)
Description: as §1

[5] = target: RSK2(Kin.Dom.2-C-terminal) (Homo sapiens, UniProt P51812)
Description: as §1

GRK1 = GRK1 (Homo sapiens, UniProt Q15835)
Description: as §1

AKT1 = AKT1 (Homo sapiens, UniProt P31749)
Description: as §1

GRK4 = GRK4 (Homo sapiens, UniProt P32298)
Description: as §1

STK33 = STK33 (Homo sapiens, UniProt Q9BYT3)
Description: as §1

LTK = LTK (Homo sapiens, UniProt P29376)
Description: as §1

PAK6 = PAK6 (Homo sapiens, UniProt Q9NQU5)
Description: as §1

FAK = FAK (Homo sapiens, UniProt Q05397)
Description: as §1

MAP3K3 = MAP3K3 (Homo sapiens, UniProt Q99759)
Description: as §1

NEK4 = NEK4 (Homo sapiens, UniProt P51957)
Description: as §1

EPHA5, sequence (P54756 25-1037): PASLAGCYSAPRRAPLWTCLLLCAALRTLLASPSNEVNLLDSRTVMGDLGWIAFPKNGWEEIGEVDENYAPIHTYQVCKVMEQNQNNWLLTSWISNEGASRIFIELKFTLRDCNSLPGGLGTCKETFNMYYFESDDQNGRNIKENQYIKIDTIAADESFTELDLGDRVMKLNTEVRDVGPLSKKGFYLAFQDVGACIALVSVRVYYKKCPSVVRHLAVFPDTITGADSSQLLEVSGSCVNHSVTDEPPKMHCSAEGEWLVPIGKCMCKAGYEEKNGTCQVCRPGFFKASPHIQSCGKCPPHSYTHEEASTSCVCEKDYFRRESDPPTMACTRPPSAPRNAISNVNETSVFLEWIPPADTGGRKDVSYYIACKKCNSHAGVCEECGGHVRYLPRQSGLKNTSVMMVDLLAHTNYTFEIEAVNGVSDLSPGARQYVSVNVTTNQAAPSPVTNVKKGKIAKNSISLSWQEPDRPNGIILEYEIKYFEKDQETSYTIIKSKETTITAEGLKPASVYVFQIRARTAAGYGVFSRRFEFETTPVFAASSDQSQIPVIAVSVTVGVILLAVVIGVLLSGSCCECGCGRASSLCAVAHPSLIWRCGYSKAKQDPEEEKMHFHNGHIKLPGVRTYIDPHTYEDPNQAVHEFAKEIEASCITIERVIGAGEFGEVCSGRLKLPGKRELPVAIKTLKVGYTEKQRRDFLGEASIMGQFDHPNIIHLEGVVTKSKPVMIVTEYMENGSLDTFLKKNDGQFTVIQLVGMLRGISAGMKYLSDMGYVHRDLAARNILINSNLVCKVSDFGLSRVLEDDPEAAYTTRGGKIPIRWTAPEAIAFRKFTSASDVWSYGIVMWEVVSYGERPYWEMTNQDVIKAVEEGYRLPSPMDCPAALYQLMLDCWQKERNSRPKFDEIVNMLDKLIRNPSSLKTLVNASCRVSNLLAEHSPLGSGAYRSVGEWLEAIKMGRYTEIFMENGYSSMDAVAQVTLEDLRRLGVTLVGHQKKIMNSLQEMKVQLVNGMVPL
STK33, sequence (Q9BYT3 whole entry): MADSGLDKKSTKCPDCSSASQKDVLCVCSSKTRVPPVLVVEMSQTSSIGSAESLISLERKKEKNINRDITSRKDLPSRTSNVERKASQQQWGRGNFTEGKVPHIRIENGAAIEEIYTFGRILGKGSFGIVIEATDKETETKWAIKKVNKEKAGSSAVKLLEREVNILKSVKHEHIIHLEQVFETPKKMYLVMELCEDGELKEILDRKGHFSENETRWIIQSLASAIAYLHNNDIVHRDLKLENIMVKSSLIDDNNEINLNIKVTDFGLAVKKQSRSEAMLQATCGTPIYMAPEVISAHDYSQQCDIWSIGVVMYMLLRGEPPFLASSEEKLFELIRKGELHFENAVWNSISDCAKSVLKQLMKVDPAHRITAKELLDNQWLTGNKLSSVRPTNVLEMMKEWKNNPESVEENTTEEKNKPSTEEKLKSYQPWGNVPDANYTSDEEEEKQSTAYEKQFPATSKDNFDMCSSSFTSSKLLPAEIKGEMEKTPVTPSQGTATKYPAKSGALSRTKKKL
ERBB2, sequence (P04626 23-1255): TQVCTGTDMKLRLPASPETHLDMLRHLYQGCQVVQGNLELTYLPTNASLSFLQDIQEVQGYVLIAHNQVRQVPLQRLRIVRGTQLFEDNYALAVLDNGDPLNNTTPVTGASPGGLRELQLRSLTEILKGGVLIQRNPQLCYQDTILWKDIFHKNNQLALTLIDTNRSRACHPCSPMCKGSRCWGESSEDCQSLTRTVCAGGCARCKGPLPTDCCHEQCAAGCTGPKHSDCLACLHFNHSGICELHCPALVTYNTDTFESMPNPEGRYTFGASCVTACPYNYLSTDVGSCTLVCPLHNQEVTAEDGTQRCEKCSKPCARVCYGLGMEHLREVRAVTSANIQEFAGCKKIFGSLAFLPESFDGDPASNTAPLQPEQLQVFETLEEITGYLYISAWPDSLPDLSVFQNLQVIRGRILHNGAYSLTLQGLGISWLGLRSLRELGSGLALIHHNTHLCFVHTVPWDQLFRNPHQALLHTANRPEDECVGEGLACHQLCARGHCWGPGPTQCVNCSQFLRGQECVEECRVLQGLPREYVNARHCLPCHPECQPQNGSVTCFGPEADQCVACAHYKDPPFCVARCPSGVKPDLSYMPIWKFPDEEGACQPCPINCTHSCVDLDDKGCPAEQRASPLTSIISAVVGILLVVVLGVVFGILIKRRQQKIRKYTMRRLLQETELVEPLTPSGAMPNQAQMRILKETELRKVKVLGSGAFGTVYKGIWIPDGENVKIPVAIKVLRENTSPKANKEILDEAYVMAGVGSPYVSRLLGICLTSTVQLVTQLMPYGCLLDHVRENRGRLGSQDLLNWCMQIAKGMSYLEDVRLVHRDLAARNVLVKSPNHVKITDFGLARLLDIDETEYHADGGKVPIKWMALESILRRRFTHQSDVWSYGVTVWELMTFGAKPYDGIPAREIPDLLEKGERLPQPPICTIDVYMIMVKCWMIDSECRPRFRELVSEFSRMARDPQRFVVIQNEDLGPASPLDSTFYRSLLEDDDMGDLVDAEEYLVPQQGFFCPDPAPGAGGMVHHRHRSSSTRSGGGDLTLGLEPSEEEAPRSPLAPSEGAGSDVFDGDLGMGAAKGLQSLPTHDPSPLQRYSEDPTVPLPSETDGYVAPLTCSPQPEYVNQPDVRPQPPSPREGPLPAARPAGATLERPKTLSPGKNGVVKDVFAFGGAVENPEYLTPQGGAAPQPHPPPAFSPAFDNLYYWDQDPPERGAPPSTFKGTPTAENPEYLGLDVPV
EGFR(S752-1759del), sequence (P00533 with tags, fused parts or gaps DEL752-759 limits assumed): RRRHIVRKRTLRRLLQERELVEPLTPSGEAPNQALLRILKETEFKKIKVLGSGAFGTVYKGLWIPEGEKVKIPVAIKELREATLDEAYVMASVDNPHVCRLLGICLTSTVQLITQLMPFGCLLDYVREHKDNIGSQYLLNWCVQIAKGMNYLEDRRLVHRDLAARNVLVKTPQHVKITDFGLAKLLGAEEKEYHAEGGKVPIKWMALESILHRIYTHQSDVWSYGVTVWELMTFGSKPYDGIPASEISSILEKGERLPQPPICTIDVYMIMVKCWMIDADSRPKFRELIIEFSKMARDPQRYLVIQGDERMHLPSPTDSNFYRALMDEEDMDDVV
T1 sequence (Q14004 whole entry): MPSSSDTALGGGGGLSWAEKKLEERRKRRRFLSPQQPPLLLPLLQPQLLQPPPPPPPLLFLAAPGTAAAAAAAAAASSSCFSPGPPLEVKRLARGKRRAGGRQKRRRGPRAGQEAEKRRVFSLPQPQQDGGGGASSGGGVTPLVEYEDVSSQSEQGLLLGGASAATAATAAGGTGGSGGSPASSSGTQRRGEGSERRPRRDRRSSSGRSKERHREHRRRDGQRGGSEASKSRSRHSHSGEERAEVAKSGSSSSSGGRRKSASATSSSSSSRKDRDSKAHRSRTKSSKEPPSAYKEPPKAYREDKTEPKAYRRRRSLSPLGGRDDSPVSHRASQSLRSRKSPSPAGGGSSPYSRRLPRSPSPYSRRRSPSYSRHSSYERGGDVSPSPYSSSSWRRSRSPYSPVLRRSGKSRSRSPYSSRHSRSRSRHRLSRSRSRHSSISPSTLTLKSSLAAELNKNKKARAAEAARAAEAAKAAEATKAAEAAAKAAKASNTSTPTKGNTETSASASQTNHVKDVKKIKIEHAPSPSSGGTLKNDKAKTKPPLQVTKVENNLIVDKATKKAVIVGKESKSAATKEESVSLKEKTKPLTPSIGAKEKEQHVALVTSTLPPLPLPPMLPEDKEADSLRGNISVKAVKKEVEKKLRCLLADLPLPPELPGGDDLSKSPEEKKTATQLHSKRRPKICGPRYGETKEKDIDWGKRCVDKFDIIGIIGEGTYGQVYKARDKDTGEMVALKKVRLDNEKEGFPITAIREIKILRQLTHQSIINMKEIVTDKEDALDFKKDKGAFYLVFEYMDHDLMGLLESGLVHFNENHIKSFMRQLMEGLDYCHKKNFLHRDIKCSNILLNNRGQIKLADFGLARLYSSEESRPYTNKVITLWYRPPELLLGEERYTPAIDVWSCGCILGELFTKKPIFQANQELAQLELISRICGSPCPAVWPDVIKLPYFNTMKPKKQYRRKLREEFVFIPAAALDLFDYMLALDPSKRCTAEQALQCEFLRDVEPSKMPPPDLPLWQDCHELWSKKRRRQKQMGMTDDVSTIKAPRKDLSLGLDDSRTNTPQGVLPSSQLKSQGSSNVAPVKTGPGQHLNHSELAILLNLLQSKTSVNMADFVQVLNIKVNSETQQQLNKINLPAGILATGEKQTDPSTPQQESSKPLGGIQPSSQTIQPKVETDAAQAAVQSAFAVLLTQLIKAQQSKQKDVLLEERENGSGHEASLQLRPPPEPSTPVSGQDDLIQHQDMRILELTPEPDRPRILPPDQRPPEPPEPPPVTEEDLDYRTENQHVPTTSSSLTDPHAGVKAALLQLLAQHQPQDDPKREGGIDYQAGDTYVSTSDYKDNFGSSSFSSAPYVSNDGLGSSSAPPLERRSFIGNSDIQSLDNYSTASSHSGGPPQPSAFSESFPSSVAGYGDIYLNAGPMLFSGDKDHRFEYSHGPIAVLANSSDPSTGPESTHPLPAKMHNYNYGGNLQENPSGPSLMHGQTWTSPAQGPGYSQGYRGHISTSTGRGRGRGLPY
RSK2(Kin.Dom.2-C-terminal), sequence (P51812 422-679 limits assumed): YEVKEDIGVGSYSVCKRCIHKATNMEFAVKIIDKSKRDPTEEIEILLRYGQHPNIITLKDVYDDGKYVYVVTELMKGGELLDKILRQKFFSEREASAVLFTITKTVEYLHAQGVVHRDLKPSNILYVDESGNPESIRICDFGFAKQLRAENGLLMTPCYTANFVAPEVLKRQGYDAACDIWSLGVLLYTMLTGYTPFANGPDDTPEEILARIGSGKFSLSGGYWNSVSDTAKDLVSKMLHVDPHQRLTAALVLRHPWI

O=C1CCC(N2C(=O)c3cccc(NCCCCCCCCNC(=O)N4CC[C@H](NC5=Nc6cc(F)ccc6N(CC(F)F)c6ccc(Cl)cc65)C4)c3C2=O)C(=O)N1 (stereo partly drawn) [BJG-05-039, (3S)-3-((2-Chloro-5-(2,2-difluoroethyl)-8-fluoro-5H-dibenzo[b,e][1,4]diazepin-11-yl)amino)-N-(8-((2-(2,6-dioxopiperidin-3-yl)-1,3-dioxoisoindolin-4-yl)amino)octyl)pyrrolidine-1-carboxamide]
remaining binding at 10 µM (PRKD2): 53% | remaining binding at 10 µM (PIP5K1A): 95% | remaining binding at 10 µM (ABL1-nonphosphorylated): 83% | remaining binding at 10 µM (TIE2): 98% | remaining binding at 10 µM (TEC): 82% | remaining binding at 10 µM (MUSK): 60% | remaining binding at 10 µM (JNK2): 84% | remaining binding at 10 µM (EPHA5): 99% | remaining binding at 10 µM (PKAC-beta): 62% | remaining binding at 10 µM (EGFR(S752-1759del)): 67% | remaining binding at 10 µM (BRK): 72% | remaining binding at 10 µM [1]: 45% | remaining binding at 10 µM (LCK): 91% | remaining binding at 10 µM (CDC2L5): 82% | remaining binding at 10 µM [2]: 94% | remaining binding at 10 µM (FLT3): 53% | remaining binding at 10 µM (CDKL3): 98% | remaining binding at 10 µM (BRAF(V600E)): 100% | remaining binding at 10 µM (PKMYT1): 54% | remaining binding at 10 µM (PAK1): 20% | remaining binding at 10 µM [3]: 100% | remaining binding at 10 µM [4]: 42% | remaining binding at 10 µM (ERBB2): 100% | remaining binding at 10 µM (PIKFYVE): 79% | remaining binding at 10 µM (DDR1): 52% | remaining binding at 10 µM (ERN1): 93% | remaining binding at 10 µM (TLK1): 46% | remaining binding at 10 µM (p38-alpha): 60% | remaining binding at 10 µM [5]: 87% | remaining binding at 10 µM (GRK1): 89% | remaining binding at 10 µM (AKT1): 83% | remaining binding at 10 µM (GRK4): 71% | remaining binding at 10 µM (STK33): 75% | remaining binding at 10 µM (LTK): 84% | remaining binding at 10 µM (PAK6): 99% | remaining binding at 10 µM (FAK): 65% | remaining binding at 10 µM (MAP3K3): 100% | remaining binding at 10 µM (NEK4): 99%
